Counter-ions that a name gives are not always drawn.
How the values were obtained:
SrfN [1] = target: T1, SrfN (Salmonella enterica, UniProt Q7CR88); test: 2-D 1H-15N HSQC NMR titration, chemical shift perturbation; type: binding; settings: 0.5 mM SrfN monomer, oxyanion site, weak
T1 construct: gene STM0082; full-length synthetic gene in pGS-21a, C-terminal 6xHis tag kept, signal peptide (1-21) cleaved in E. coli, mature residues 22-96; 15N or 13C,15N labelled

SrfN [2] = target: T1, SrfN; test: as above; type: binding
SEC-MALS = target: the molecule itself; test: SEC-MALS

O=C(O)C1=C[C@H](O)[C@@H](OS(=O)(=O)O)[C@H](O[C@H]2[C@H](O)[C@@H](NS(=O)(=O)O)C(O)O[C@@H]2COS(=O)(=O)O)O1 (stereo partly drawn) [heparin disaccharide, α-ΔUA-2S-[1→4]-GlcNS-6S]
2-D 1H-15N HSQC NMR titration, chemical shift perturbation (SrfN [1]; 5 mM disaccharide (20:1 to dimer)): The interaction with heparin disaccharide appears to be somewhat weaker

O=S(=O)(O)O [sodium sulfate]
2-D 1H-15N HSQC NMR titration, chemical shift perturbation (SrfN [1]; neutral pH, 100-200 mM Na2SO4 (400-800:1 to dimer)): a region on the surface which interacts only weakly with sulfate ion at neutral pH

O=S(=O)(O)OC[C@H]1O[C@@](COS(=O)(=O)O)(O[C@H]2O[C@H](COS(=O)(=O)O)[C@@H](OS(=O)(=O)O)[C@H](OS(=O)(=O)O)[C@H]2OS(=O)(=O)O)[C@@H](OS(=O)(=O)O)[C@@H]1OS(=O)(=O)O [sucrose octasulfate]
Kd (SrfN [2]): < 500 µM

B1: SrfN (STM0082) of Salmonella enterica serovar Typhimurium LT2, processed form lacking the 21 N-termi (natural protein)
chain: AEQVSKQEISHFKLVKVGTINVSQSGGQISSPSDLREKLSELADAKGGKYYHIIAAREHGPNFEAVAEVYNDATK
modifications: uniform 15N or 13C,15N isotope labelling in the NMR samples
notes: also called StR109; SrfN dimer
stoichiometry N (SEC-MALS): 2

Source: PMC4092069, “Structural and Functional Characterization of DUF1471 Domains of Salmonella Proteins SrfN, YdgH/SssB, and YahO” (PLoS ONE, 2014)
